# According to article PMC5344293, “A phase 1 dose-escalation and expansion study of binimetinib (MEK162), a potent and selective oral MEK1/2 inhibitor” (British Journal of Cancer, 2017):
# Assay: Phase 1 safety: adverse events
# Format: in vivo, human
# Description: All patients underwent a complete medical history and physical examination, assessment of ECOG performance status and vital signs, and laboratory analysis of haematology, coagulation, clinical chemistry, and urine. Three serial resting and supine 12-lead electrocardiograms were conducted over 5–10 min and cardiac ejection fraction was assessed by echocardiogram or MUGA. In addition, a complete ophthalmologic examination (including visual acuity; fundoscopy and tonometry; optical coherence tomography; and slit-lamp, lens, vitreous, and fluorescence dye examinations) was performed on each patient. These assessments were repeated throughout study participation and/or as clinically indicated. Adverse events were reviewed on an ongoing basis.
# Adverse events and serious AEs (SAEs) were coded by preferred term (PT) and system organ class using the Medical Dictionary for Regulatory Activities version 12.0. The severity of AEs was assessed by investigators using the National Cancer Institute Common Terminology Criteria for Adverse Events version 3.0. Two AEs of special interest were captured under the composite terms of ‘combined rash' and ‘combined ocular events.' The ‘combined rash' term included the PTs of dermatitis acneiform, acne, skin exfoliation, and any term containing ‘rash'. The ‘combined ocular events' term included the PTs of retinal deposits, retinopathy, papilloedema, chorioretinopathy, macular oedema, retinal detachment, and retinal disorder.
# All patients who received ⩾1 dose of binimetinib were included in the safety analysis. Patients in the safety analysis who had ⩾1 measurable lesion at baseline and at least 1 post-baseline disease assessment were evaluable for efficacy. Kaplan–Meier estimates of progression-free survival (PFS) and overall survival (OS) were performed for patients in the expansion phase ([Kaplan and Meier, 1958]) using SAS Version 9.2 (SAS Institute Inc., Cary, NC, USA).
structure (smiles),measurement,setting,value
Cn1cnc2c(F)c(Nc3ccc(Br)cc3F)c(C(=O)NOCCO)cc21 [binimetinib],Abdominal pain,"30 mg BID (n=4), Gr 1/2",1 (25) n (%)
same,Anaemia,"30 mg BID (n=4), Gr 1/2",1 (25) n (%)
same,Anorexia,"30 mg BID (n=4), Gr 1/2",1 (25) n (%)
same,Combined ocular events,"30 mg BID (n=4), Gr 1/2",0 (0) n (%)
same,Combined rash,"30 mg BID (n=4), Gr 1/2",4 (100) n (%)
same,Constipation,"30 mg BID (n=4), Gr 1/2",2 (50) n (%)
same,Diarrhoea,"30 mg BID (n=4), Gr 1/2",4 (100) n (%)
same,Dizziness,"30 mg BID (n=4), Gr 1/2",0 (0) n (%)
same,Dyspnoea,"30 mg BID (n=4), Gr 1/2",2 (50) n (%)
same,Fatigue,"30 mg BID (n=4), Gr 1/2",2 (50) n (%)
same,Nausea,"30 mg BID (n=4), Gr 1/2",3 (75) n (%)
same,Peripheral oedema,"30 mg BID (n=4), Gr 1/2",0 (0) n (%)
same,Pyrexia,"30 mg BID (n=4), Gr 1/2",2 (50) n (%)
same,Vomiting,"30 mg BID (n=4), Gr 1/2",3 (75) n (%)
same,Abdominal pain,"30 mg BID (n=4), Gr 3/4",0 (0) n (%)
same,Anaemia,"30 mg BID (n=4), Gr 3/4",0 (0) n (%)
same,Anorexia,"30 mg BID (n=4), Gr 3/4",0 (0) n (%)
same,Combined ocular events,"30 mg BID (n=4), Gr 3/4",0 (0) n (%)
same,Combined rash,"30 mg BID (n=4), Gr 3/4",0 (0) n (%)
same,Constipation,"30 mg BID (n=4), Gr 3/4",0 (0) n (%)
same,Diarrhoea,"30 mg BID (n=4), Gr 3/4",0 (0) n (%)
same,Dizziness,"30 mg BID (n=4), Gr 3/4",0 (0) n (%)
same,Dyspnoea,"30 mg BID (n=4), Gr 3/4",0 (0) n (%)
same,Fatigue,"30 mg BID (n=4), Gr 3/4",0 (0) n (%)
same,Nausea,"30 mg BID (n=4), Gr 3/4",0 (0) n (%)
same,Peripheral oedema,"30 mg BID (n=4), Gr 3/4",0 (0) n (%)
same,Pyrexia,"30 mg BID (n=4), Gr 3/4",0 (0) n (%)
same,Vomiting,"30 mg BID (n=4), Gr 3/4",0 (0) n (%)
same,Incidence of ocular events,30 mg BID dose group,0%
same,Patients reporting SAEs,30 mg BID dose group,50%
same,Abdominal pain,"45 mg BID (n=44), Gr 1/2",7 (16) n (%)
same,Anaemia,"45 mg BID (n=44), Gr 1/2",5 (11) n (%)
same,Anorexia,"45 mg BID (n=44), Gr 1/2",8 (18) n (%)
same,Combined ocular events,"45 mg BID (n=44), Gr 1/2",5 (11) n (%)
same,Combined rash,"45 mg BID (n=44), Gr 1/2",33 (75) n (%)
same,Constipation,"45 mg BID (n=44), Gr 1/2",6 (14) n (%)
same,Diarrhoea,"45 mg BID (n=44), Gr 1/2",17 (39) n (%)
same,Dizziness,"45 mg BID (n=44), Gr 1/2",5 (11) n (%)
same,Dyspnoea,"45 mg BID (n=44), Gr 1/2",5 (11) n (%)
same,Fatigue,"45 mg BID (n=44), Gr 1/2",18 (41) n (%)
same,Nausea,"45 mg BID (n=44), Gr 1/2",27 (61) n (%)
same,Peripheral oedema,"45 mg BID (n=44), Gr 1/2",20 (45) n (%)
same,Pyrexia,"45 mg BID (n=44), Gr 1/2",7 (16) n (%)
same,Vomiting,"45 mg BID (n=44), Gr 1/2",23 (52) n (%)
same,Abdominal pain,"45 mg BID (n=44), Gr 3/4",1 (2) n (%)
same,Anaemia,"45 mg BID (n=44), Gr 3/4",3 (7) n (%)
same,Anorexia,"45 mg BID (n=44), Gr 3/4",0 (0) n (%)
same,Combined ocular events,"45 mg BID (n=44), Gr 3/4",0 (0) n (%)
same,Combined rash,"45 mg BID (n=44), Gr 3/4",1 (2) n (%)
same,Constipation,"45 mg BID (n=44), Gr 3/4",0 (0) n (%)
same,Diarrhoea,"45 mg BID (n=44), Gr 3/4",0 (0) n (%)
same,Dizziness,"45 mg BID (n=44), Gr 3/4",0 (0) n (%)
same,Dyspnoea,"45 mg BID (n=44), Gr 3/4",2 (5) n (%)
same,Fatigue,"45 mg BID (n=44), Gr 3/4",2 (5) n (%)
same,Nausea,"45 mg BID (n=44), Gr 3/4",0 (0) n (%)
same,Peripheral oedema,"45 mg BID (n=44), Gr 3/4",0 (0) n (%)
same,Pyrexia,"45 mg BID (n=44), Gr 3/4",0 (0) n (%)
same,Vomiting,"45 mg BID (n=44), Gr 3/4",0 (0) n (%)
same,"AEs resulting in treatment discontinuation, patients",45 mg BID dose group,16%
same,"AEs that resulted in dose reduction, patients",45 mg BID dose group,16%
same,Incidence of combined rash,45 mg BID dose group,77%
same,Incidence of diarrhoea,45 mg BID dose group,39%
same,Incidence of nausea,45 mg BID dose group,61%
same,Incidence of ocular events,45 mg BID dose group,11%
same,Incidence of peripheral oedema,45 mg BID dose group,45%
same,Incidence of vomiting,45 mg BID dose group,52%
same,Median time to onset of combined rash,45 mg BID dose group,8 days
same,Patients reporting SAEs,45 mg BID dose group,20%
same,Abdominal pain,"60 mg BID (n=41), Gr 1/2",7 (17) n (%)
same,Anaemia,"60 mg BID (n=41), Gr 1/2",5 (12) n (%)
same,Anorexia,"60 mg BID (n=41), Gr 1/2",8 (20) n (%)
same,Combined ocular events,"60 mg BID (n=41), Gr 1/2",11 (27) n (%)
same,Combined rash,"60 mg BID (n=41), Gr 1/2",35 (85) n (%)
same,Constipation,"60 mg BID (n=41), Gr 1/2",8 (20) n (%)
same,Diarrhoea,"60 mg BID (n=41), Gr 1/2",25 (61) n (%)
same,Dizziness,"60 mg BID (n=41), Gr 1/2",9 (22) n (%)
same,Dyspnoea,"60 mg BID (n=41), Gr 1/2",6 (15) n (%)
same,Fatigue,"60 mg BID (n=41), Gr 1/2",16 (39) n (%)
same,Nausea,"60 mg BID (n=41), Gr 1/2",21 (51) n (%)
same,Peripheral oedema,"60 mg BID (n=41), Gr 1/2",21 (51) n (%)
same,Pyrexia,"60 mg BID (n=41), Gr 1/2",7 (17) n (%)
same,Vomiting,"60 mg BID (n=41), Gr 1/2",20 (49) n (%)
same,Abdominal pain,"60 mg BID (n=41), Gr 3/4",3 (7) n (%)
same,Anaemia,"60 mg BID (n=41), Gr 3/4",10 (24) n (%)
same,Anorexia,"60 mg BID (n=41), Gr 3/4",0 (0) n (%)
same,Combined ocular events,"60 mg BID (n=41), Gr 3/4",0 (0) n (%)
same,Combined rash,"60 mg BID (n=41), Gr 3/4",1 (2) n (%)
same,Constipation,"60 mg BID (n=41), Gr 3/4",2 (5) n (%)
same,Diarrhoea,"60 mg BID (n=41), Gr 3/4",0 (0) n (%)
same,Dizziness,"60 mg BID (n=41), Gr 3/4",0 (0) n (%)
same,Dyspnoea,"60 mg BID (n=41), Gr 3/4",1 (2) n (%)
same,Fatigue,"60 mg BID (n=41), Gr 3/4",1 (2) n (%)
same,Nausea,"60 mg BID (n=41), Gr 3/4",0 (0) n (%)
same,Peripheral oedema,"60 mg BID (n=41), Gr 3/4",0 (0) n (%)
same,Pyrexia,"60 mg BID (n=41), Gr 3/4",1 (2) n (%)
same,Vomiting,"60 mg BID (n=41), Gr 3/4",0 (0) n (%)
same,"AEs resulting in treatment discontinuation, patients",60 mg BID dose group,15%
same,"AEs that resulted in dose reduction, patients",60 mg BID dose group,49%
same,Incidence of combined rash,60 mg BID dose group,88%
same,Incidence of diarrhoea,60 mg BID dose group,61%
same,Incidence of nausea,60 mg BID dose group,51%
same,Incidence of ocular events,60 mg BID dose group,27%
same,Incidence of peripheral oedema,60 mg BID dose group,51%
same,Incidence of vomiting,60 mg BID dose group,49%
same,Median time to onset of combined rash,60 mg BID dose group,10 days
same,Patients reporting SAEs,60 mg BID dose group,41%
same,Abdominal pain,"80 mg BID (n=4), Gr 1/2",1 (25) n (%)
